Measurements taken from ChEMBL document CHEMBL3044789, “Comparing weed and crop seedling response to pre-emergence pendimethalin application in Corchorus olitorius and Abelmoschus esculentus” (Crop Prot, 2006).

What was measured:
[1] = tested on: Abelmoschus esculentus; assay: Phytotoxicity in Abelmoschus esculentus assessed as shoot length at 1.32 kg a.i/ha applied as solution after 7 weeks (reference value: 28.7 +/- 0.34 mm); type: organism-based; settings: in vivo, other, 1176 h
[2] = tested on: Euphorbia heterophylla; assay: Herbicidal activity against Euphorbia heterophylla in Corchorus olitorius plots assessed as major weed growth at 0.33 kg a.i/ha after 2 weeks; type: functional
[3] = tested on: Ageratum conyzoides; assay: Herbicidal activity against Ageratum conyzoides in Abelmoschus esculentus plots assessed as weed cover at 1.32 kg a.i/ha after 4 weeks (reference value: 22.6 +/- 0.49 %); type: functional
[4] = tested on: Synedrella nodiflora; assay: Herbicidal activity against Synedrella nodiflora in Abelmoschus esculentus plots assessed as major weed growth at 0.33 kg a.i/ha after 2 weeks; type: functional
[5] = tested on: Rottboellia cochinchinensis; assay: Herbicidal activity against Rottboellia cochinchinensis in Abelmoschus esculentus plots assessed as weed cover at 0.33 kg a.i/ha after 2 weeks (reference value: 63.5 +/- 0.29 %); type: functional
[6] = tested on: Synedrella nodiflora; assay: Herbicidal activity against Synedrella nodiflora in Corchorus olitorius plots assessed as weed cover at 0.99 kg a.i/ha after 2 weeks (reference value: 81.7 +/- 0.43 %); type: functional
[7] = tested on: Talinum fruticosum; assay: Herbicidal activity against Talinum fruticosum in Abelmoschus esculentus plots assessed as weed recovery at 0.99 kg a.i/ha after 2 weeks (reference value: 60.1 +/- 0.46 %); type: functional
[8] = tested on: Euphorbia heterophylla; assay: Herbicidal activity against Euphorbia heterophylla in Corchorus olitorius plots assessed as weed recovery at 0.33 kg a.i/ha after 2 weeks (reference value: 78.3 +/- 0.74 %); type: functional
[9] = tested on: Cyperus rotundus; assay: Herbicidal activity against Cyperus rotundus in Corchorus olitorius plots assessed as minor weed growth at 0.66 kg a.i/ha after 2 weeks; type: functional
[10] = tested on: Synedrella nodiflora; assay: Herbicidal activity against Synedrella nodiflora in Corchorus olitorius plots assessed as weed cover at 0.66 kg a.i/ha after 7 weeks (reference value: 1.7 +/- 0.56 %); type: functional
[11] = tested on: Rottboellia cochinchinensis; assay: Herbicidal activity against Rottboellia cochinchinensis in Abelmoschus esculentus plots assessed as weed cover at 0.33 kg a.i/ha after 7 weeks (reference value: 14.7 +/- 0.46 %); type: functional
[12] = tested on: Euphorbia heterophylla; assay: Herbicidal activity against Euphorbia heterophylla in Abelmoschus esculentus plots assessed as weed cover at 0.99 kg a.i/ha after 7 weeks (reference value: 14.7 +/- 0.46 %); type: functional
[13] = tested on: Euphorbia heterophylla; assay: Herbicidal activity against Euphorbia heterophylla in Abelmoschus esculentus plots assessed as weed cover at 1.32 kg a.i/ha after 2 weeks (reference value: 63.5 +/- 0.29 %); type: functional

## CCC(CC)Nc1c([N+](=O)[O-])cc(C)c(C)c1[N+](=O)[O-] [PENDIMETHALIN]
[1]
  Activity: 14.6 mm
[2]
  Activity: 31 /m2
[3]
  Activity: 36.2%
[4]
  Activity: 31 /m2
[5]
  Activity: 56.8%
[6]
  Activity: 51.7%
[7]
  Activity: 36.2%
[8]
  Activity: 31.7%
[9]
  Activity: 1 /m2
[10]
  Activity: 100%
[11]
  Activity: 90%
[12]
  Activity: 83.9%
[13]
  Activity: 45%
